Results on three compounds are retold here after ChEMBL document CHEMBL3046343, “Responses of the cabbage seedpod weevil, Ceutorhynchus obstrictus (Marsham) (Coleoptera: Curculionidae), to seed treatments of canola (Brassica napus L.) with the neonicotinoid compounds clothianidin and imidacloprid” (2009).

Molecules are shown by their SMILES. Calls of active or inactive are those of the source. No cut-off for these calls is given here.

Experiment [1] deals with Ceutorhynchus obstrictus. Description: Inhibition of emergence of new-generation Ceutorhynchus obstrictus adults from soil harboring Brassica napus L. Ryder plant developed from compound treated seeds at 600 g/L FS measured for 5 weeks relative to lindane. Type of experiment: functional.
Experiment [2] has as its system Ceutorhynchus obstrictus. Briefly: Inhibition of Ceutorhynchus obstrictus preimaginal development in Brassica napus L. Ryder pods of plant developed from compound treated seeds assessed as decrease in number of exit holes formed per pod by third-instar larvae at 600 g/L FS. The experiment is classed as functional, organism-based.
The test system of experiment [3] is Contarinia nasturtii. Description: Inhibition of Contarinia nasturtii larval development in Brassica oleracea L. var italica plant developed from compound pretreated seeds at 4.5 g AI per 100 g seed measured at 4-5 weeks after planting. The experiment is classed as functional. Also on record: scale not given: the % may be the effect or the level left.
In experiment [4] the test system is Ceutorhynchus obstrictus. Briefly: Inhibition of Ceutorhynchus obstrictus preimaginal development in Brassica napus L. Ryder pods of plant developed from compound treated seeds assessed as decrease in number of third-instar larvae at 600 g/L FS by microscopic analysis. The experiment is classed as functional, organism-based.
Experiment [5] concerns Ceutorhynchus obstrictus. Briefly: Inhibition of Ceutorhynchus obstrictus preimaginal development in Brassica napus L. Ryder pods of plant developed from compound treated seeds assessed as decrease in number of second-instar larvae at 600 g/L FS by microscopic analysis. The experiment is classed as functional, organism-based.
In experiment [6] the test system is Ceutorhynchus obstrictus. Description: Inhibition of Ceutorhynchus obstrictus preimaginal development in Brassica napus L. Ryder pods of plant developed from compound treated seeds assessed as effect on number of first-instar larvae at 600 g/L FS by microscopic analysis. The experiment is classed as functional, organism-based.
In experiment [7] the test system is Ceutorhynchus obstrictus. Description: Effect on Ceutorhynchus obstrictus oviposition in Brassica napus L. Ryder pods of plant developed from compound treated seeds assessed as number of eggs deposited at 600 g/L FS by microscopic analysis. Type of experiment: functional, organism-based.
For experiment [8], the system named is Ceutorhynchus obstrictus. Briefly: Inhibition of Ceutorhynchus obstrictus development in canola pods of plant developed from compound treated seeds assessed as decrease in number of exit holes formed by larvae at 0.30 kg AI per 45.36 kg seeds. The experiment is classed as functional.
The test system of experiment [9] is Ceutorhynchus obstrictus. Briefly: Inhibition of Ceutorhynchus obstrictus development in canola pods of plant developed from compound treated seeds assessed as decrease in number of exit holes formed by larvae at 0.23 kg AI per 45.36 kg seeds. The experiment is classed as functional.
For experiment [10], the system named is Ceutorhynchus obstrictus. Description: Inhibition of emergence of new-generation Ceutorhynchus obstrictus adults from soil harboring Brassica napus L. Ryder plant developed from compound treated seeds at 800 g/L FS measured for 5 weeks relative to lindane. Type of experiment: functional.
The subject of experiment [11] is Ceutorhynchus obstrictus. Briefly: Inhibition of Ceutorhynchus obstrictus preimaginal development in Brassica napus L. Ryder pods of plant developed from compound treated seeds assessed as decrease in number of exit holes formed per pod by larvae at 800 g/L FS. Type of experiment: functional, organism-based.
In experiment [12] the test system is Ceutorhynchus obstrictus. Description: Inhibition of Ceutorhynchus obstrictus preimaginal development in Brassica napus L. Ryder pods of plant developed from compound treated seeds assessed as decrease in number of third-instar larvae at 800 g/L FS by microscopic analysis. Type of experiment: functional, organism-based.
In experiment [13] the test system is Ceutorhynchus obstrictus. Briefly: Inhibition of Ceutorhynchus obstrictus preimaginal development in Brassica napus L. Ryder pods of plant developed from compound treated seeds assessed as decrease in number of second-instar larvae at 800 g/L FS by microscopic analysis. Type of experiment: functional, organism-based.
Experiment [14] deals with Ceutorhynchus obstrictus. Description: Inhibition of Ceutorhynchus obstrictus preimaginal development in Brassica napus L. Ryder pods of plant developed from compound treated seeds assessed as effect on number of first-instar larvae at 800 g/L FS by microscopic analysis. The experiment is classed as functional, organism-based.
For experiment [15], the system named is Ceutorhynchus obstrictus. Description: Effect on Ceutorhynchus obstrictus oviposition in Brassica napus L. Ryder pods of plant developed from compound treated seeds assessed as number of eggs deposited at 800 g/L FS by microscopic analysis. Type of experiment: functional, organism-based.
The subject of experiment [16] is Ceutorhynchus obstrictus. Description: Inhibition of Ceutorhynchus obstrictus development in canola pods of plant developed from compound treated seeds assessed as decrease in number of exit holes formed by larvae at 0.28 kg AI per 45.36 kg seeds relative to untreated control. Type of experiment: functional.
Experiment [17] relates to Ceutorhynchus obstrictus. Briefly: Inhibition of Ceutorhynchus obstrictus development in canola pods of plant developed from compound treated seeds assessed as decrease in number of exit holes formed by larvae at 0.28 kg AI per 45.36 kg seeds. Type of experiment: functional.
The test system of experiment [18] is Ceutorhynchus obstrictus. Description: Inhibition of Ceutorhynchus obstrictus development in canola pods of plant developed from compound treated seeds assessed as decrease in number of exit holes formed by larvae at 0.45 kg AI per 45.36 kg seeds relative to untreated control. The experiment is classed as functional.
In experiment [19] the test system is Ceutorhynchus obstrictus. Description: Inhibition of Ceutorhynchus obstrictus development in canola pods of plant developed from compound treated seeds assessed as decrease in number of exit holes formed by larvae at 0.38 kg AI per 45.36 kg seeds relative to untreated control. The experiment is classed as functional.
In experiment [20] the test system is Ceutorhynchus obstrictus. Description: Inhibition of Ceutorhynchus obstrictus development in canola pods of plant developed from compound treated seeds assessed as decrease in number of exit holes formed by larvae at 0.30 kg AI per 45.36 kg seeds relative to untreated control. Type of experiment: functional.
Experiment [21] has as its system Ceutorhynchus obstrictus. Description: Inhibition of Ceutorhynchus obstrictus development in canola pods of plant developed from compound treated seeds assessed as decrease in number of exit holes formed by larvae at 0.23 kg AI per 45.36 kg seeds relative to untreated control. The experiment is classed as functional.
Experiment [22] relates to Ceutorhynchus obstrictus. Briefly: Inhibition of Ceutorhynchus obstrictus development in canola pods of plant developed from compound treated seeds assessed as decrease in number of exit holes formed by larvae at 0.45 kg AI per 45.36 kg seeds. The experiment is classed as functional.
For experiment [23], the system named is Ceutorhynchus obstrictus. Briefly: Inhibition of Ceutorhynchus obstrictus development in canola pods of plant developed from compound treated seeds assessed as decrease in number of exit holes formed by larvae at 0.38 kg AI per 45.36 kg seeds. Type of experiment: functional.
Experiment [24] relates to Ceutorhynchus obstrictus. Description: Ratio of compound to imidacloprid for exit holes formed in Brassica napus L. Ryder pod by […] larvae of Ceutorhynchus obstrictus. The experiment is classed as functional.
Experiment [25] relates to Ceutorhynchus obstrictus. Briefly: Ratio of compound to clothianidin for exit holes formed in Brassica napus L. Ryder pods by Ceutorhynchus obstrictus larvae. Type of experiment: functional.
The test system of experiment [26] is Ceutorhynchus obstrictus. Briefly: Inhibition of Ceutorhynchus obstrictus preimaginal development in Brassica napus L. Ryder pods of plant developed from compound treated seeds assessed as effect on number of first-instar larvae at 1351 g per 100 kg seeds by microscopic analysis. The experiment is classed as functional, organism-based.
Experiment [27] concerns Ceutorhynchus obstrictus. Briefly: Effect on Ceutorhynchus obstrictus oviposition in Brassica napus L. Ryder pods of plant developed from compound treated seeds assessed as number of eggs deposited at 1351 g per 100 kg seeds by microscopic analysis. The experiment is classed as functional, organism-based.

With `CN/C(=N\[N+](=O)[O-])NCc1cnc(Cl)s1` [CLOTHIANIDINE], in [1], the “inhibition (INH)” value came to 52.2%. Further, the inhibition result in [2], in experiment [4] and in experiment [5] was “Active” in each case. Further, the Activity in experiment [3] was found to be 100%. Further, the inhibition entry in experiment [6] was “inactive”. Besides, in experiment [7], the result was inactive.
As for `O=[N+]([O-])/N=C1\NCCN1Cc1ccc(Cl)nc1` [IMIDACLOPRID], the “inhibition (INH)” value was found to be 96% in experiment [8]; 88% in experiment [9]; 39.4% in [10]; 100% in [17]; 100% in experiment [22]; 98% in experiment [23]. For the same compound, the inhibition result in experiment [11], in experiment [12] and in experiment [13] was “Active” throughout. In addition, the inhibition result in experiment [14] is “inactive”. Further, in [15], the result was inactive. In [3], the Activity is 100%. In addition, the “fold change (FC)” value was determined as 2.2 in experiment [16]; 2.4 in [18]; 2 in [19]; 2.1 in [20]; 1.9 in experiment [21].
Take `Cl[C@H]1[C@H](Cl)[C@@H](Cl)[C@@H](Cl)[C@H](Cl)[C@H]1Cl` [LINDANE]: the “fold change (FC)” value is listed as 2 in experiment [24] and 2.5 in [25]. The inhibition entry in [26] was “inactive”. Moreover, the result in experiment [27] was inactive.
